Measurements as given in patent US20050059032A1, “Methods & compositions relating to drug-induced arrhythmia” (Pfizer Inc, priority 2002, published 2005).

Test system: patients with congestive heart failure or recent myocardial infarction
Settings: human, in vivo
Source text: Genomic DNA samples were obtained from the blood samples of patients enrolled in the DIAMOND study (Danish Investigations of Arrhythmia and Mortality on Dofetilide) or a clinical protocol similar in nature to the DIAMOND Study. These studies focused on the effects of Dofetilide on two populations of patients, one with congestive heart failure and one with recent myocardial infarction associated with left ventricular dysfunction (ejection fraction <35%) (Moller, M., (1996) Lancet, 348(9041):1597-8; Moller, M. et al., (1997) Congest Heart Fail., 7(3):146-150). DNA samples were obtained from 105 patients in total. Of the 105 patients, 7 developed torsade de pointes (TdP) upon treatment with Dofetilide while the remaining 98 patients responded to treatment without developing TdP as a side effect.

With `CN(CCOc1ccc(NS(C)(=O)=O)cc1)CCc1ccc(NS(C)(=O)=O)cc1` [Dofetilide] the “patients who developed torsade de pointes (TdP) upon treatment” value was 7.
